Results as given in patent US20090188497A1, “MEDICAL PRODUCT CONTAINING TIOTROPIUM” (Boehringer Ingelheim International GmbH, priority 2003, published 2009).

Assay: In-use stability test of FPD, capsules in opened blister at 40° C. and 75% Rh (tests S3-S5)
Type: physicochemical
Conditions: conclusion of the tests on SPIRIVA
Source text: SPIRIVA® powder formulation in bulk and SPIRIVA® capsules from our local pharmacy were introduced to the laboratory together with the […]®. The laboratory was set up to perform in-vitro tests according to European Pharmacopoeia (EP) and US Pharmacopoeia (USP) using two Andersen cascade impactors. All analytical work where then performed according to standardized methods for Physical Tests and Determinations for Aerosols, metered-dose inhalers and dry powder inhalers described in pharmacopoeias (e.g. USP 2002<601>) using a state of the art High Performance Liquid Chromatograph (HPLC) system.
(§1) From the blister holding 5 capsules one capsule was withdrawn and the remaining 4 capsules were put 4 days into 40° C. and 75% Rh. The blister containing the 4 capsules was then put in an exicator for 2 h before tests were performed. The test was performed with 4 kPa pressure drop over the […]® at room temperature and laboratory ambient conditions.
as §1, with “put 13” for “put 4”, “conditions. […]” for “conditions.”

Which sensitivity to moisture does the source give for `C[N+]1(C)[C@@H]2C[C@@H](OC(=O)C(O)(c3cccs3)c3cccs3)C[C@H]1[C@@H]1O[C@@H]12` [tiotropium] here?
Its sensitivity to moisture is “extremely sensitive to moisture”.
